In the experiment the target is T1, CHOK1 cells engineered to overexpress human CCR2 (Homo sapiens, UniProt P41597).
T1 construct: expressed in transfected cells; host or cells: CHOK1 cells
Kind of experiment: Antibody dependent cellular cytotoxicity (ADCC) reporter assay (Example 199). In kind it is cell-based. Particulars: with anti-cotinine antibody SEQ ID NO: 11/12; CHOK1-human CCR2 target cells, Jurkat FcγRIIIa NFAT-luciferase reporter cells; 12-18 hours; read-out: ADCC Reporter Assay pEC50 (converted). The procedure: An antibody dependent cellular cytoxicity reporter assay was conducted using the following four assay components: (i) ARM compound of Formula (I) targeting CCR2 (concentrations ranging from 1 pM to 10 μM) (ii) anti-cotinine antibody having a heavy chain sequence of SEQ ID NO: 11 and a light chain sequence of SEQ ID NO: 12 (rabbit variable region with human IgG1 Fc domain containing a DE mutation (S239D/1332E)) (concentrations ranging from 0.01 μg/mL to 200 μg/mL); (iii) target cells: CHOK1 cells engineered to overexpress either human CCR2 (typically 1000-20,000 cells per well) and (iv) reporter cells: Jurkat cells engineered to express FcγRIIIa with the reporter gene luciferase under the control of the NFAT promoter (typically 3000-75,000 cells per well). Reagents were combined in a final volume of 20 μL in a 384-well tissue culture treated plate. All four assay components were incubated together for about 12-18 hours. Thereafter, BioGlo Detection reagent (Promega) was added to the wells to lyse the cells and provide a substrate for the luciferase reporter protein. Luminescence signal was measured on a microplate reader and signal:background was calculated by dividing the signal of a test well by the signal obtained when no heterobivalent compound of Formula (I) was added. EC50 calculations were done using Graphpad Prism Software, specifically a nonlinear regression curve fit (Y=Bottom+(Top−Bottom)/(1+10^((Log EC50−X)*HillSlope))).
ARMs compounds of Formula (I) of the invention were tested for ADCC activity in the above assay in or more experimental runs and the results are shown in Table 3 below. Potency of the compounds of Formula (I) of the invention is reported as a pEC50 value. The pEC50 value is the negative log of the EC50 value, wherein the EC50 value is the half maximal effective concentration measured in molar (M). For compounds tested in more than one experimental run, the pEC50 value is reported as an average.
Background: A reporter such as luciferase makes a cellular process visible.
With `CC(C)N(C)[C@@H]1CC[C@H](N2CC[C@H](Nc3ncnc4ccc(C(F)(F)F)cc34)C2=O)[C@H](NC(=O)C23CCC(NC(=O)CCOCCOCCOCCNC(=O)[C@H]4CC(=O)N(C)[C@@H]4c4cccnc4)(CC2)CC3)C1` [Example 25], the EC50 was 20 nM.

Take `CC(C)N(C)[C@@H]1CC[C@H](N2CC[C@H](Nc3ncnc4ccc(C(F)(F)F)cc34)C2=O)[C@H](NC(=O)C2CCN(C3CCN(C(=O)CCCCCNC(=O)[C@H]4CC(=O)N(C)[C@@H]4c4cccnc4)CC3)CC2)C1` [Example 87]: the EC50 was 3.98 nM. As to `CC(C)N(C)[C@@H]1CC[C@H](N2CC[C@H](Nc3ncnc4ccc(C(F)(F)F)cc34)C2=O)[C@H](NC(=O)C[C@H]2CC[C@H](NC(=O)CCOCCOCCOCCNC(=O)[C@H]3CC(=O)N(C)[C@@H]3c3cccnc3)CC2)C1` [Example 33], the EC50 is 4.54 nM. With `CC(C)N(C)[C@@H]1CC[C@H](N2CC[C@H](Nc3ncnc4ccc(C(F)(F)F)cc34)C2=O)[C@H](NC(=O)CCCOCC23CCC(COCCNC(=O)[C@H]4CC(=O)N(C)[C@@H]4c4cccnc4)(CC2)CC3)C1` [Example 59], the EC50 is 251 nM. In the case of `CC(C)N(C)[C@@H]1CC[C@H](N2CC[C@H](Nc3ncnc4ccc(C(F)(F)F)cc34)C2=O)[C@H](NC(=O)[C@H]2CC[C@@H](N3CCC(C(=O)NCCOCCOCCNC(=O)[C@H]4CC(=O)N(C)[C@@H]4c4cccnc4)C(F)(F)C3)CC2)C1` (some centres unmarked) [Example 132] it was 3.16 nM; in that of `CC(C)N(C)[C@@H]1CC[C@H](N2CC[C@H](Nc3ncnc4ccc(C(F)(F)F)cc34)C2=O)[C@H](NC(=O)[C@H]2CC[C@@H](NC(=O)C3CCC4(CC3)CCN(C(=O)[C@H]3CC(=O)N(C)[C@@H]3c3cccnc3)CC4)CC2)C1` [Example 95, N-((1 S,4R)-4-(((1R,2S,5R)-5-(Isopropyl(methyl)amino)-2-((S)-2-oxo-3-((6-(trifluoromethyl)quinazolin-4-yl)amino)pyrrolidin-1-yl)cyclohexyl)carbamoyl)cyclohexyl)-3-((2S,3S)-1-methyl-5-oxo-2-(pyridin-3-yl)pyrrolidine-3-carbonyl)-3-azaspiro[5.5]undecane-9-carboxamide], 6.31 nM; in that of `CC(C)N(C)[C@@H]1CC[C@H](N2CC[C@H](Nc3ncnc4ccc(C(F)(F)F)cc34)C2=O)[C@H](NC(=O)CCOCCC(=O)N2CCC3(CCC(C(=O)NCCNC(=O)[C@H]4CC(=O)N(C)[C@@H]4c4cccnc4)CC3)CC2)C1` [Example 167, 3-(3-(3-(((1R,2S,5R)-5-(Isopropyl(methyl)amino)-2-((S)-2-oxo-3-((6-(trifluoromethyl)quinazolin-4-yl)amino)pyrrolidin-1-yl)cyclohexyl)amino)-3-oxopropoxy)propanoyl)-N-(2-((2S,3S)-1-methyl-5-oxo-2-(pyridin-3-yl)pyrrolidine-3-carboxamido)ethyl)-3-azaspiro[5.5]undecane-9-carboxamide], 1.26 nM. Take `CC(C)N(C)[C@@H]1CC[C@H](N2CC[C@H](Nc3ncnc4ccc(C(F)(F)F)cc34)C2=O)[C@H](NC(=O)[C@H]2CC[C@H](c3ccc(C(=O)NCCOCCOCCNC(=O)[C@H]4CC(=O)N(C)[C@@H]4c4cccnc4)nc3)CC2)C1` [Example 141]: the EC50 was 2 nM. Consider `CC(C)N(C)[C@@H]1CC[C@H](N2CC[C@H](Nc3ncnc4ccc(C(F)(F)F)cc34)C2=O)[C@H](NC(=O)[C@H]2CC[C@H](N3CCN(CCOCCOCCNC(=O)[C@H]4CC(=O)N(C)[C@@H]4c4cccnc4)CC3)CC2)C1` [compound 190], for which the EC50 was 2.51 nM. Regarding `CC(C)N(C)[C@@H]1CC[C@H](N2CC[C@H](Nc3ncnc4ccc(C(F)(F)F)cc34)C2=O)[C@H](NC(=O)COCCNC(=O)CNC(=O)COCCOCCNC(=O)[C@H]2CC(=O)N(C)[C@@H]2c2cccnc2)C1` [Example 78], the EC50 is 5.52 nM. Take `CC(C)N(C)[C@@H]1CC[C@H](N2CC[C@H](Nc3ncnc4ccc(C(F)(F)F)cc34)C2=O)[C@H](NC(=O)c2cccc(NCCOCCOCCOCCOCCNC(=O)[C@H]3CC(=O)N(C)[C@@H]3c3cccnc3)n2)C1` [Example 123, N-((1R,2S,5R)-5-(Isopropyl(methyl)amino)-2-((S)-2-oxo-3-((6-(trifluoromethyl)quinazolin-4-yl)amino)pyrrolidin-1-yl)cyclohexyl)-6-((1-((2S,3S)-1-methyl-5-oxo-2-(pyridin-3-yl)pyrrolidin-3-yl)-1-oxo-5,8,11,14-tetraoxa-2-azahexadecan-16-yl)amino)picolinamide]: the EC50 is 5.01 nM. In the case of `CC(C)N(C)[C@@H]1CC[C@H](N2CC[C@H](Nc3ncnc4ccc(C(F)(F)F)cc34)C2=O)[C@H](NC(=O)C2CCC(N3CC(C(=O)NCCOCCOCCNC(=O)[C@H]4CC(=O)N(C)[C@@H]4c4cccnc4)C3)CC2)C1` (some centres unmarked) [Example 131], the EC50 was 3.16 nM. On to `CC(C)N(C)[C@@H]1CC[C@H](N2CC[C@H](Nc3ncnc4ccc(C(F)(F)F)cc34)C2=O)[C@H](NC(=O)CCOCCOCCNC(=O)[C@@H]2CCCN2CCOCCNC(=O)[C@H]2CC(=O)N(C)[C@@H]2c2cccnc2)C1` [Example 118, (S)-N-(2-(2-(3-(((1R,2S,5R)-5-(Isopropyl(methyl)amino)-2-((S)-2-oxo-3-((6-(trifluoromethyl)quinazolin-4-yl)amino)pyrrolidin-1-yl)cyclohexyl)amino)-3-oxopropoxy)ethoxy)ethyl)-1-(2-(2-((2S,3S)-1-methyl-5-oxo-2-(pyridin-3-yl)pyrrolidine-3-carboxamido)ethoxy)ethyl)pyrrolidine-2-carboxamide], for which the EC50 was 3.98 nM.

For `CC(C)N(C)[C@@H]1CC[C@H](N2CC[C@H](Nc3ncnc4ccc(C(F)(F)F)cc34)C2=O)[C@H](NC(=O)[C@H]2CC[C@H](N3CCN(C(=O)CCOCCOCCNC(=O)[C@H]4CC(=O)N(C)[C@@H]4c4cccnc4)CC3)CC2)C1` [Example 96, (2S,3S)-N-(2-(2-(3-(4-((1R,4r)-4-(((1R,2S,5R)-5-(Isopropyl(methyl)amino)-2-((S)-2-oxo-3-((6-(trifluoromethyl)quinazolin-4-yl)amino)pyrrolidin-1-yl)cyclohexyl)carbamoyl)cyclohexyl)piperazin-1-yl)-3-oxopropoxy)ethoxy)ethyl)-1-methyl-5-oxo-2-(pyridin-3-yl)pyrrolidine-3-carboxamide], the EC50 was 6.31 nM. Under `CN1C(=O)C[C@H](C(=O)NCCOCC(=O)NCCOCC(=O)N[C@H]2CC[C@@H](C(=O)N[C@@H]3C[C@H](NC(C)(C)C)CC[C@@H]3N3CC[C@H](Nc4ncnc5ccc(C(F)(F)F)cc45)C3=O)CC2)[C@H]1c1cccnc1` [Example 100] stands 1.2 nM; under `CC(C)N(C)[C@@H]1CC[C@H](N2CC[C@H](Nc3ncnc4ccc(C(F)(F)F)cc34)C2=O)[C@H](NC(=O)[C@H]2CC[C@@H](N3CCN(CCCCCCCCNC(=O)[C@H]4CC(=O)N(C)[C@@H]4c4cccnc4)CC3)CC2)C1` [Example 145], 1.58 nM.

With `CC(C)N(C)[C@@H]1CC[C@H](N2CC[C@H](Nc3ncnc4ccc(C(F)(F)F)cc34)C2=O)[C@H](NC(=O)[C@H]2CC[C@H](NC(=O)CCO[C@H]3CC[C@@H](OCCNC(=O)[C@H]4CC(=O)N(C)[C@@H]4c4cccnc4)CC3)CC2)C1` [Example 114], the EC50 was 5.77 nM. Take `CC(C)N(C)[C@@H]1CC[C@H](N2CC[C@H](Nc3ncnc4ccc(C(F)(F)F)cc34)C2=O)[C@H](NC(=O)[C@H]2CC[C@@H](NC(=O)CNC(=O)COCCOCCNC(=O)[C@H]3CC(=O)N(C)[C@@H]3c3cccnc3)CC2)C1` [Example 81]: the EC50 was 0.522 nM. On to `CC(C)N(C)[C@@H]1CC[C@H](N2CC[C@H](Nc3ncnc4ccc(C(F)(F)F)cc34)C2=O)[C@H](NC(=O)COCCCCCCCCCOCCCCCCCNC(=O)[C@H]2CC(=O)N(C)[C@@H]2c2cccnc2)C1` [Example 153, (2S,3S)-N-(7-((9-(2-(((1R,2S,5R)-5-(Isopropyl(methyl)amino)-2-((S)-2-oxo-3-((6-(trifluoromethyl)quinazolin-4-yl)amino)pyrrolidin-1-yl)cyclohexyl)amino)-2-oxoethoxy)nonyl)oxy)heptyl)-1-methyl-5-oxo-2-(pyridin-3-yl)pyrrolidine-3-carboxamide], for which the EC50 was 2.51 nM.

Regarding `CC(C)N(C)[C@@H]1CC[C@H](N2CC[C@H](Nc3ncnc4ccc(C(F)(F)F)cc34)C2=O)[C@H](NC(=O)C2CCN(C3CCN(C4CCN(CCCCNC(=O)[C@H]5CC(=O)N(C)[C@@H]5c5cccnc5)CC4)CC3)CC2)C1` [Example 185, N-((1R,2S,5R)-5-(isopropyl(methyl)amino)-2-((S)-2-oxo-3-((6-(trifluoromethyl)quinazolin-4-yl)amino)pyrrolidin-1-yl)cyclohexyl)-1″-(4-((2S,3S)-1-methyl-5-oxo-2-(pyridin-3-yl)pyrrolidine-3-carboxamido)butyl)-[1,4′:1′,4″-terpiperidine]-4-carboxamide], the EC50 was 0.501 nM.

For the origin of these results see patent publication US20250136722A1, “CYTOTOXICITY TARGETING CHIMERAS” (GLAXOSMITHKLINE INTELLECTUAL PROPERTY DEVELOPMENT LIMITED, priority 2021, published 2025).
